Reference: patent publication US9777002B2, “Inhibitors of the renal outer medullary potassium channel” (Merck Sharp & Dohme Corp., priority 2012, dated 2017)

Molecular target: T1, hROMK (hKir1.1) (Homo sapiens, UniProt P48048)
T1 construct: expressed in transfected cells
T1 sequence (P48048 1-391): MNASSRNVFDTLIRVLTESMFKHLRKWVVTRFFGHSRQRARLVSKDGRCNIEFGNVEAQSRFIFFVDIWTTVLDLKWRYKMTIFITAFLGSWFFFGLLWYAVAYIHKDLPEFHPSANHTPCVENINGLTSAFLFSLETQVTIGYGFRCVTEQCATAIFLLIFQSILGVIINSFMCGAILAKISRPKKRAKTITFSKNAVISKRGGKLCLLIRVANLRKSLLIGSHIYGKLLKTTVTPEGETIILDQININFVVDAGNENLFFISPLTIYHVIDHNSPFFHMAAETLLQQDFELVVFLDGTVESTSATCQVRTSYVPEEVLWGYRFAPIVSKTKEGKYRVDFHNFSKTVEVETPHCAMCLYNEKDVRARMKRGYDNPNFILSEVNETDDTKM
Test: Thallium Flux Assay
Type: cell-based
Conditions: HEK293 cells stably expressing hROMK (hKir1.1)
Procedure: Cell Culture Conditions—HEK293 cells stably expressing hROMK (hKir1.1) were grown at 37° C. in a 10% CO2 humidified incubator in complete growth media: Dulbecco's Modified Eagle Medium supplemented with non-essential amino acids, Penicillin/Streptomycin/Glutamine, G418 and FBS. At >80% confluency, aspirate the media from the flask and rinse with 10 mL Calcium/Magnesium-free PBS. Add 5 mL of 1× trypsin (prepared in Ca/Mg Free PBS) to T-225 flask and return flask to 37° C./CO2 incubator for 2-3 minutes. To dislodge the cell, gently bang the side of the flask with your hand. Triturate the cells completely and then transfer the cells to 25 mL complete media. Centrifuge at 1,500 rpm for 6 min followed by resuspension in complete growth media and determine cell concentration. For typical re-seeding, 4E6 cells/T-225 flask will attain >80% confluency in 4 days. Under ideal growth conditions and appropriate tissue culture practices, this cell line is stable for 40-45 passages.
FluxOR Kit Components (Invitrogen F10017)
• FluxOR™ Reagent (Component A) • FluxOR™ Assay Buffer (Component B)—10× Concentrate • PowerLoad™ Concentrate (Component C)—100× Concentrate • Probenecid (Component D)—Lyophilized sample is kept at −20° C. Water soluble, 100× after solubilization in 1 mL water. Store at 4° C. • FluxOR™ Chloride-free Buffer (Component E)—5× Concentrate • Potassium sulfate (K2SO4) Concentrate (Component F)—125 mM in water. Store at 4° C. • Thallium sulfate (Tl2SO4) Concentrate (Component G)—50 mM in water. Store at 4° C. • DMSO (dimethyl sulfoxide, Component H)—1 mL (100%) Reagent Preparation: FluxOR Working Solutions • 1000× FluxOR™ Reagent: Reconstitute a vial of component A in 100 μl DMSO; Mix well; Store 10 μl aliquots at −20° C. • 1× FluxOR™ Assay Buffer: Dilute Component B 10-fold with water; Adjust pH to 7.4 with Hepes/NaOH; Filter and store at 4° C. • Probenecid/Assay Buffer: 100 mL of 1× FluxOR™ Assay Buffer; 1 mL of reconstituted component D; Store at 4° C. • Loading Buffer (per microplate): 10 μl 1000× FluxOR™ Reagent; 100 μl component C; 10 mL Probenecid/Assay Buffer • Compound Buffer (per microplate): 20 mL Probenecid/Assay Buffer; 0.3 mM ouabain (10 mM ouabain in water can be stored in amber bottle/aluminum foil at room temperature); Test compound • 1× FluxOR™ Chloride-Free Buffer: Prepare 1× working solution in water. Can be stored at room temperature • Stimulant Buffer (prepared at 5× final concentration in 1× FluxOR™Chloride-Free Buffer): 7.5 mM Thallium sulfate and 0.75 mM Potassium sulfate (to give a final assay concentration of 3 mM Thallium/0.3 mM Potassium). Store at 4° C. when not in use. If kept sterile, this solution is good for months.
Assay Protocol—The ROMK channel functional thallium flux assay is performed in 384 wells, using the FLIPR-Tetra instrument. HEK-hKir1.1 cells are seeded in Poly-D-Lysine microplates and kept in a 37° C.-10% CO2 incubator overnight. On the day of the experiment, the growth media is replaced with the FluxOR™ reagent loading buffer and incubated, protected from light, at ambient temperature (23-25° C.) for 90 min. The loading buffer is replaced with assay buffer± test compound followed by 30 min incubation at ambient temperature, where the Thallium/Potassium stimulant is added to the microplate.
• 1. Seed HEK-hKir1.1 cells (50 μl at 20,000 cells/well) in 384-well PDL coated Microplates • 2. Allow cells to adhere overnight in humidified 37° C./10% CO2 incubator • 3. Completely remove cell growth media from microplate and replace with 25 μl loading buffer • 4. Incubate Microplate at room temperature, protected form light, for 90 min • 5. Remove loading buffer and replace with 25 μl 1× Assay Buffer±test compound. • 6. Incubate microplate at room temperature, protected from light, for 30 min • 7. At FLIPR-Tetra 384: Add stimulant (Thallium/Potassium) solution to microplate and monitor fluorescence. Excitation=400 nm, Emission=460 & 580 nm. Collect data for ˜10 min. […]

Structure (SMILES)	IC50 [nM]
Cc1c([C@@H](O)CN2CCC(NC(=O)c3ccc(C#N)nc3)C(F)C2)ccc2c1COC2=O (single isomer, unassigned) [46 B]	650
COc1ccc(C(=O)NC2CCN(CCc3ccc4c(c3C)COC4=O)CC2)cc1C#N [Example 9, 3-Cyano-4-methoxy-N-(1-(2-(4-methyl-1-oxo-1,3-dihydroisobenzofuran-5-yl)ethyl)piperidin-4-yl)benzamide]	30
Cc1c([C@@H](O)CN2CCC(N3Cc4cc([N+](=O)[O-])ccc4C3=O)CC2)ccc2c1COC2=O [Example 88, (R)-2-(1-(2-Hydroxy-2-(4-methyl-1-oxo-1,3-dihydroisobenzofuran-5-yl)ethyl)piperidin-4-yl)-5-nitroisoindolin-1-one]	30
Cc1c([C@@H](O)CN2CCC(NC(=O)c3ccc(C#N)cn3)CC2)ccc2c1COC2=O [Example 28, (R)-5-Cyano-N-(1-(2-hydroxy-2-(4-methyl-1-oxo-1,3-dihydroisobenzofuran-5-yl)ethyl)piperidin-4-yl)picolinamide]	30
COc1cc(C(=O)NC2CCN(CC(O)c3ccc(F)c(C#N)c3C)CC2)ccc1C#N (centres unmarked) [Example 14, 4-Cyano-N-(1-(2-(3-cyano-4-fluoro-2-methylphenyl)-2-hydroxyethyl)piperidin-4-yl)-3-methoxybenzamide]	70
Cc1cc(C(=O)NC2CCN(C[C@H](O)c3ccc4c(c3C)COC4=O)CC2)ncc1C#N [Example 22, (R)-5-cyano-N-(1-(2-hydroxy-2-(4-methyl-1-oxo-1,3-dihydroisobenzofuran-5-yl)ethyl)piperidin-4-yl)-4-methylpicolinamide]	20
Cc1c([C@@H](O)CN2CCCC(C(C)(C)NC(=O)c3ccc(-n4cnnn4)nc3)C2)ccc2c1COC2=O (stereo partly drawn) [Example 80, N-(2-(1-((R)-2-Hydroxy-2-(4-methyl-1-oxo-1,3-dihydroisobenzofuran-5-yl)ethyl)piperidin-3-yl)propan-2-yl)-6-(1H-tetrazol-1-yl)nicotinamide]	970
Cc1cc(C(=O)NC2CCN(C[C@@H](O)c3ccc4c(c3C)COC4=O)CC2)ncc1C#N [Example 23, (S)-5-cyano-N-(1-(2-hydroxy-2-(4-methyl-1-oxo-1,3-dihydroisobenzofuran-5-yl)ethyl)piperidin-4-yl)-4-methylpicolinamide]	720
Cc1c(CCN2CCC(NC(=O)c3cc(C#N)cs3)CC2)ccc2c1COC2=O [Example 32, 4-Cyano-N-(1-(2-(4-methyl-1-oxo-1,3-dihydroisobenzofuran-5-yl)ethyl)piperidin-4-yl)thiophene-2-carboxamide]	480
Cc1c([C@@H](O)CN2CCC(C)(NC(=O)c3ccc(-n4cnnn4)cn3)CC2)ccc2c1COC2=O [Example 60, (R)-N-(1-(2-Hydroxy-2-(4-methyl-1-oxo-1,3-dihydroisobenzofuran-5-yl)ethyl)-4-methylpiperidin-4-yl)-5-(1H-tetrazol-1-yl)picolinamide]	180
Cc1c(CCN2CCC(N(C)C(=O)c3ccc4c(c3)COC4=O)CC2)ccc2c1COC2=O [Example 2, N-Methyl-N-(1-(2-(4-methyl-1-oxo-1,3-dihydroisobenzofuran-5-yl)ethyl)piperidin-4-yl)-1-oxo-1,3-dihydroisobenzofuran-5-carboxamide]	600
Cc1cc(C(=O)NC2CCN(C[C@H](O)c3ccc4c(c3C)COC4=O)CC2F)ncc1C#N (single isomer, unassigned) [48 A]	80
Cc1nc(C(=O)NC2CCN(C[C@H](O)c3ccc4c(c3C)COC4=O)CC2)ccc1C#N [Example 41, (R)-5-Cyano-N-(1-(2-hydroxy-2-(4-methyl-1-oxo-1,3-dihydroisobenzofuran-5-yl)ethyl)piperidin-4-yl)-6-methylpicolinamide]	70
Cc1c([C@@H](O)CN2CCC(NC(=O)c3ccc(-n4cnnn4)cn3)CC2)ccc2c1COC2=O [Example 53, (R)-N-(1-(2-Hydroxy-2-(4-methyl-1-oxo-1,3-dihydroisobenzofuran-5-yl)ethyl)piperidin-4-yl)-5-(1H-tetrazol-1-yl)picolinamide]	190
Cc1c([C@@H](O)CN2CCCC(C)(CNC(=O)c3ccc(-n4cnnn4)cn3)C2)ccc2c1COC2=O (stereo partly drawn) [Example 67, N-((1-((R)-2-Hydroxy-2-(4-methyl-1-oxo-1,3-dihydroisobenzofuran-5-yl)ethyl)-3-methylpiperidin-3-yl)methyl)-5-(1H-tetrazol-1-yl)picolinamide]	360
Cc1c([C@@H](O)CN2CC[C@H](NC(=O)c3ccc(-n4cnnn4)cn3)[C@H](F)C2)ccc2c1COC2=O (single isomer, unassigned) [58 B]	870
COc1cc(F)c(C#N)cc1C(=O)NC1CCN(C[C@H](O)c2ccc3c(c2C)COC3=O)CC1 [Example 20, (R)-5-Cyano-4-fluoro-N-(1-(2-hydroxy-2-(4-methyl-1-oxo-1,3-dihydroisobenzofuran-5-yl)ethyl)piperidin-4-yl)-2-methoxybenzamide]	70
Cc1c([C@@H](O)CN2CCC(NC(=O)c3ccc(-c4cc[nH]n4)cc3)CC2)ccc2c1COC2=O [Example 39, (R)-N-(1-(2-Hydroxy-2-(4-methyl-1-oxo-1,3-dihydroisobenzofuran-5-yl)ethyl)piperidin-4-yl)-4-(1H-pyrazol-3-yl)benzamide]	310
COc1cc(C(=O)NC2CCN(CCc3ccc4c(c3C)COC4=O)CC2)ccc1C#N [Example 5, 4-Cyano-3-methoxy-N-(1-(2-(4-methyl-1-oxo-1,3-dihydroisobenzofuran-5-yl)ethyl)piperidin-4-yl)benzamide]	20
Cc1c(C(O)CN2CCC(NC(=O)c3ccc4c(c3)COC4=O)CC2)ccc2c1COC2=O (centres unmarked) [Example 6, N-(1-(2-Hydroxy-2-(4-methyl-1-oxo-1,3-dihydroisobenzofuran-5-yl)ethyl)piperidin-4-yl)-1-oxo-1,3-dihydroisobenzofuran-5-carboxamide]	40
Cc1c([C@@H](O)CN2CCC(NC(=O)c3ccc4nonc4c3)CC2)ccc2c1COC2=O [Example 66, (R)-N-(1-(2-Hydroxy-2-(4-methyl-1-oxo-1,3-dihydroisobenzofuran-5-yl)ethyl)piperidin-4-yl)benzo[c][1,2,5]oxadiazole-5-carboxamide]	220
Cc1c([C@@H](O)CN2CC[C@H](NC(=O)c3ccc(-n4cnnn4)nc3)[C@H](F)C2)ccc2c1COC2=O (single isomer, unassigned) [50 A]	100
Cc1c(C(O)CN2CCC(NC(=O)c3ccc(C#N)c(F)c3)CC2)ccc2c1COC2=O (centres unmarked) [Example 16, 4-Cyano-3-fluoro-N-(1-(2-hydroxy-2-(4-methyl-1-oxo-1,3-dihydroisobenzofuran-5-yl)ethyl)piperidin-4-yl)benzamide]	50
